Values after ≈ are worked out from the molar mass of the structure shown.
Columns and labels:
Type in all cases: cell-based
[1] = test system: ENTEROBACTER AEROGENES ATCC 13048; assay: In vitro antibacterial activity, MIC, BHI agar dilution; details: E. aerogenes ATCC 13048, unit assumed
[2] = test system: STAPHYLOCOCCUS AUREUS A-5278; assay: as above
[3] = test system: STAPHYLOCOCCUS AUREUS A5177; assay: as above; details: S. aureus A5177, unit assumed
[4] = test system: STREPTOCOCCUS PYOGENES EES61; assay: as above
[5] = test system: MYCOBACTERIUM SMEGMATIS ATCC 114; assay: as above; details: M. smegmatis ATCC 114, unit assumed
[6] = test system: KLEBSIELLA PNEUMONIAE ATCC 8045; assay: as above; details: K. pneumoniae ATCC 8045, unit assumed
[7] = test system: PSEUDOMONAS AERUGINOSA BMH10; assay: as above; details: P. aeruginosa BMH10, unit assumed
[8] = test system: M[…] ATCC 9341; assay: as above; details: M. luteus ATCC 9341, unit assumed
Outline: (§1)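 Twelve successive aqueous dilutions of compound in Brain Heart Infusion agar were inoculated with 1:100 culture dilutions (1:10 for slow growers such as Micrococcus, Streptococcus) by Steers replicator and incubated at 35-37° C for 20 to 24 hours. MIC was the lowest concentration giving no growth, slight haze or sparse colonies versus drug-free control.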

[9] = test system: EN[…] ATCC 8043; assay: as above; details: E. faecium ATCC 8043, unit assumed
Outline: as §1

[10] = test system: M[…] ATCC 4698; assay: as above
Outline: as §1

[11] = test system: STR[…] 508; assay: as above; details: S. agalactiae CMX 508, unit assumed
Outline: as §1

[12] = test system: PSEUDOMONAS CEPACIA 296I; assay: as above; details: P. cepacia 296I, unit assumed
[13] = test system: PSEUDOMONAS AERUGINOSA DPHD-2862; assay: as above; details: P. aeruginosa DPHD-2862, unit assumed
[14] = test system: ESCHERICHIA COLI JUHL; details: E. coli JUHL; BHI agar; unit assumed
[15] = test system: PSEUDOMONAS AERUGINOSA DPHD-5263; assay: In vitro antibacterial activity, MIC, BHI agar dilution; details: P. aeruginosa DPHD-5263, unit assumed
[16] = test system: STAPHYLOCOCCUS AUREUS CMX 642A; assay: as above; details: S. aureus CMX 642A, unit assumed
[17] = test system: STREPTOCOCCUS PYOGENES PIU 2548; assay: as above; details: S. pyogenes PIU 2548, unit assumed
[18] = test system: ACINETOBACTER CALCOACETICUS CMX 669; assay: as above; details: A. calcoaceticus CMX 669, unit assumed
[19] = test system: ESCHERICHIA COLI KNK 437; details: E. coli KNK 437; BHI agar; unit assumed
[20] = test system: ESCHERICHIA COLI DC-2; assay: In vitro antibacterial activity, MIC, BHI agar dilution; details: E. coli DC-2, unit assumed
[21] = test system: PROVIDENCIA STUARTII CMX 640; details: P. stuartii CMX 640; BHI agar; unit assumed
[22] = test system: CANDIDA ALBICANS CCH 442; assay: In vitro antibacterial activity, MIC, BHI agar dilution; details: C. albicans CCH 442, unit assumed
[23] = test system: PSEUDOMONAS AERUGINOSA K799/61; assay: as above; details: P. aeruginosa K799/61, unit assumed
[24] = test system: STAPHYLOCOCCUS AUREUS 1775; assay: as above; details: S. aureus 1775, unit assumed
[25] = test system: STREPTOCOCCUS PYOGENES 930; assay: as above; details: S. pyogenes 930, unit assumed
[26] = test system: ESCHERICHIA COLI SS; assay: as above; details: E. coli SS
[27] = test system: STAPHYLOCOCCUS AUREUS CMX 553; assay: as above; details: S. aureus CMX 553, unit assumed
[28] = test system: PSEUDOMONAS AERUGINOSA K799/WT; assay: as above; details: P. aeruginosa K799/WT, unit assumed
[29] = test system: STAPHYLOCOCCUS AUREUS NCTC10649M; assay: as above; details: S. aureus NCTC10649M, unit assumed
[30] = test system: STAPHYLOCOCCUS AUREUS ATCC 6538P; assay: as above; details: S. aureus ATCC 6538P, 35-37° C., 20 to 24 hours, unit assumed
[31] = test system: ESCHERICHIA COLI H560; assay: as above; details: E. coli H560, unit assumed
[32] = test system: STAPHYLOCOCCUS EPIDERMIDIS 3519; details: S. epidermidis 3519; BHI agar; unit assumed
[33] = test system: PSEUDOMONAS AERUGINOSA 5007; assay: In vitro antibacterial activity, MIC, BHI agar dilution; details: P. aeruginosa 5007, unit assumed
[34] = test system: STREPTOCOCCUS BOVIS A-5169; assay: as above
[35] = S. pyogenes EES61, unit assumed
[36] = M. luteus ATCC 4698, unit assumed

| Compound | MIC [1] | MIC [3] | MIC [5] | MIC [6] | MIC [7] | MIC [8] | MIC [9] | MIC [12] | MIC [13] | MIC [14] | MIC [15] | MIC [16] | MIC [17] | MIC [18] | MIC [19] | MIC [20] | MIC [21] | MIC [22] | MIC [24] | MIC [25] | other results |
| --- | --- | --- | --- | --- | --- | --- | --- | --- | --- | --- | --- | --- | --- | --- | --- | --- | --- | --- | --- | --- | --- |
| CC[C@H]1OC(=O)[C@H](C)C(=O)[C@H](C)[C@@H](O[C@@H]2O[C@H](C)C[C@H](N(C)C)[C@H]2O)[C@](C)(OC)C[C@@H](C)C2=N[C@@H]3CCCC[C@@H]3N3C(=O)O[C@@]1(C)[C@H]3[C@H]2C [Example 13] | 100 µg/mL (≈ 145 µM) | 0.78 µg/mL (≈ 1.13 µM) | 0.39 µg/mL (≈ 0.564 µM) | 100 µg/mL (≈ 145 µM) | > 100 µg/mL | 0.2 µg/mL (≈ 0.289 µM) | 0.1 µg/mL (≈ 0.145 µM) | > 100 µg/mL | > 100 µg/mL | 50 µg/mL (≈ 72.3 µM) | > 100 µg/mL | 0.78 µg/mL (≈ 1.13 µM) | 0.2 µg/mL (≈ 0.289 µM) | > 100 µg/mL | 100 µg/mL (≈ 145 µM) | 100 µg/mL (≈ 145 µM) | > 100 µg/mL | 3.1 µg/mL (≈ 4.48 µM) | > 100 µg/mL | > 100 µg/mL | MIC ([2]; S. aureus A-5278, unit assumed): > 100 µg/mL; MIC [4, 35]: 0.02 µg/mL (≈ 0.0289 µM); MIC [10, 36]: 0.78 µg/mL (≈ 1.13 µM); MIC [11]: 0.02 µg/mL (≈ 0.0289 µM); MIC [23]: 3.1 µg/mL (≈ 4.48 µM); MIC ([26]; unit assumed): 0.39 µg/mL (≈ 0.564 µM); MIC [27]: 0.78 µg/mL (≈ 1.13 µM); MIC [28]: > 100 µg/mL; MIC [29]: 0.78 µg/mL (≈ 1.13 µM); MIC [30]: 0.78 µg/mL (≈ 1.13 µM); MIC [31]: 50 µg/mL (≈ 72.3 µM); MIC [32]: 0.78 µg/mL (≈ 1.13 µM); MIC [33]: > 100 µg/mL |
| CC[C@H]1OC(=O)[C@H](C)C(=O)[C@H](C)[C@@H](O[C@@H]2O[C@H](C)C[C@H](N(C)C)[C@H]2O)[C@](C)(OC)C[C@@H](C)C2=N[C@@H]3CN(C(=O)OCc4ccccc4)C[C@@H]3N3C(=O)O[C@@]1(C)[C@H]3[C@H]2C [Example 20] | > 100 µg/mL | 0.78 µg/mL (≈ 0.959 µM) | 3.1 µg/mL (≈ 3.81 µM) | > 100 µg/mL | > 100 µg/mL | 0.39 µg/mL (≈ 0.48 µM) | 0.39 µg/mL (≈ 0.48 µM) | > 100 µg/mL | > 100 µg/mL | > 100 µg/mL | > 100 µg/mL | 1.56 µg/mL (≈ 1.92 µM) | 0.78 µg/mL (≈ 0.959 µM) | 100 µg/mL (≈ 123 µM) | > 100 µg/mL | > 100 µg/mL | > 100 µg/mL | > 100 µg/mL | > 100 µg/mL | > 100 µg/mL | MIC ([2]; S. aureus A-5278, unit assumed): > 100 µg/mL; MIC [4, 35]: 0.005 µg/mL (≈ 0.00615 µM); MIC [10, 36]: 0.78 µg/mL (≈ 0.959 µM); MIC [11]: 0.1 µg/mL (≈ 0.123 µM); MIC ([34]; S. bovis A-5169, unit assumed): 0.1 µg/mL (≈ 0.123 µM); MIC [23]: 6.2 µg/mL (≈ 7.63 µM); MIC ([26]; unit assumed): 3.1 µg/mL (≈ 3.81 µM); MIC [27]: 1.56 µg/mL (≈ 1.92 µM); MIC [28]: > 100 µg/mL; MIC [31]: 100 µg/mL (≈ 123 µM); MIC [32]: 0.78 µg/mL (≈ 0.959 µM); MIC [33]: > 100 µg/mL |
| CC[C@H]1OC(=O)[C@H](C)C(=O)[C@H](C)[C@@H](O[C@@H]2O[C@H](C)C[C@H](N(C)C)[C@H]2O)[C@](C)(OC)C[C@@H](C)C2=NC3CN(CCOc4ccccc4)CC3N3C(=O)O[C@@]1(C)[C@H]3[C@H]2C (some centres unmarked) [Example 128] | > 100 µg/mL | 0.39 µg/mL (≈ 0.488 µM) | 1.56 µg/mL (≈ 1.95 µM) | > 100 µg/mL | > 100 µg/mL | 0.05 µg/mL (≈ 0.0626 µM) | 0.1 µg/mL (≈ 0.125 µM) | > 100 µg/mL | > 100 µg/mL | 100 µg/mL (≈ 125 µM) | > 100 µg/mL | 0.39 µg/mL (≈ 0.488 µM) | 0.78 µg/mL (≈ 0.976 µM) | 100 µg/mL (≈ 125 µM) | > 100 µg/mL | > 100 µg/mL | > 100 µg/mL | > 100 µg/mL | > 100 µg/mL | > 100 µg/mL | MIC ([2]; S. aureus A-5278, unit assumed): > 100 µg/mL; MIC [4, 35]: ≤ 0.005 µg/mL; MIC [10, 36]: 0.39 µg/mL (≈ 0.488 µM); MIC ([34]; S. bovis A-5169, unit assumed): ≤ 0.005 µg/mL; MIC [23]: 6.2 µg/mL (≈ 7.76 µM); MIC ([26]; unit assumed): 1.56 µg/mL (≈ 1.95 µM); MIC [27]: 0.39 µg/mL (≈ 0.488 µM); MIC [28]: > 100 µg/mL; MIC [29]: 0.39 µg/mL (≈ 0.488 µM); MIC [30]: 0.39 µg/mL (≈ 0.488 µM); MIC [31]: > 100 µg/mL; MIC [32]: 0.39 µg/mL (≈ 0.488 µM); MIC [33]: > 100 µg/mL |
| CC[C@H]1OC(=O)[C@H](C)C(=O)[C@H](C)[C@@H](O[C@@H]2O[C@H](C)C[C@H](N(C)C)[C@H]2O)[C@](C)(OC)C[C@@H](C)C2=NC(COCc3ccc(Cl)cc3)C(COCc3ccc(Cl)cc3)N3C(=O)O[C@@]1(C)[C@H]3[C@H]2C (some centres unmarked) [Example 147] | > 100 µg/mL | 1.56 µg/mL (≈ 1.65 µM) | 1.56 µg/mL (≈ 1.65 µM) | > 100 µg/mL | > 100 µg/mL | 0.39 µg/mL (≈ 0.412 µM) | 0.78 µg/mL (≈ 0.824 µM) | > 100 µg/mL | > 100 µg/mL | > 100 µg/mL | > 100 µg/mL | 1.56 µg/mL (≈ 1.65 µM) | 3.1 µg/mL (≈ 3.27 µM) | > 100 µg/mL | > 100 µg/mL | > 100 µg/mL | > 100 µg/mL | 50 µg/mL (≈ 52.8 µM) | 12.5 µg/mL (≈ 13.2 µM) | 3.1 µg/mL (≈ 3.27 µM) | MIC ([2]; S. aureus A-5278, listed as Ex 147, unit assumed): 6.2 µg/mL (≈ 6.55 µM); MIC ([4]; S. pyogenes EES61, listed as Ex 147, unit assumed): 0.78 µg/mL (≈ 0.824 µM); MIC ([10]; M. luteus ATCC 4698, listed as Ex 147, unit assumed): 3.1 µg/mL (≈ 3.27 µM); MIC [11]: 0.78 µg/mL (≈ 0.824 µM); MIC ([34]; S. bovis A-5169, listed as Ex 147, unit assumed): 0.39 µg/mL (≈ 0.412 µM); MIC ([26]; listed as Ex 147, unit assumed): > 100 µg/mL; MIC [27]: 1.56 µg/mL (≈ 1.65 µM); MIC [28]: > 100 µg/mL; MIC [29]: 1.56 µg/mL (≈ 1.65 µM); MIC [30]: 1.56 µg/mL (≈ 1.65 µM); MIC [31]: > 100 µg/mL; MIC [32]: 1.56 µg/mL (≈ 1.65 µM); MIC [33]: > 100 µg/mL |
